# Measured values taken from patent publication US6506769B2, “Heterocyclic compounds useful as inhibitors of tyrosine kinases” (Boehringer Ingelheim Pharmaceuticals, Inc., priority 1999, dated 2003).
row,Structure (SMILES),melting point
1,"C=Cc1[nH]c(=O)c2c(ccc3nc(Nc4c(Cl)cccc4Cl)n(C)c32)c1C [Example 15, 2-(2,6-Dichlorophenylamino)-1,6-dimethyl-7-vinyl-1,8-dihydro-imidazo[4,5-h]isoquinoline-9-one]",> 300 °C
2,"Cc1[nH]c(=O)c2c(ccc3nc(Nc4c(Cl)cccc4Cl)n(C)c32)c1CC(=O)N1CCOCC1 [Example 7, 2-(2,6-Dichlorophenylamino)-1,7-dimethyl-6-(2-morpholin-4-yl-2-oxoethyl)-1,8-dihydro-imidazo[4,5-h]isoquinoline-9-one]",> 300 °C
3,"Cc1c(/C=C/CN)[nH]c(=O)c2c1ccc1nc(Nc3c(Cl)cccc3Cl)n(C)c12 [Example 28, 7-(3-Aminopropen-1-yl)-2-(2,6dichlorophenylamino)-1,6-dimethyl-1,8-dihydro-imidazo[4,5-h]-isoquinolin-9-one]",> 300 °C
4,"Cc1[nH]c(=O)c2c(ccc3nc(Nc4c(Cl)cccc4Cl)[nH]c32)c1C [Example 3a, 2-(2,6-Dichlorophenylamino)-6,7-dimethyl-1,8-dihydro-imidazo[4,5-h]isoquinoline-9-one]",> 300 °C
5,"Cn1c(Nc2c(Cl)cccc2Cl)nc2ccc3c4c([nH]c(=O)c3c21)CCC4 [Example 27, 2-(2,6-Dichlorophenylamino)-3-methyl-5,6,7,8-tetrahydro-3H-1,3,5-triaza-dicyclopenta[a,f]naphthalen-4-one]",> 300 °C (dec.)
6,"Cc1[nH]c(=O)c2c(ccc3nc(Nc4c(Cl)cccc4Cl)n(C)c32)c1CCN1CCOCC1 [Example 8, 2-(2,6-Dichlorophenylamino)-1,7-dimethyl-6-(2-morpholin-4-yl-ethyl)-1,8-dihydro-imidazo[4,5-h]isoquinoline-9-one]",285 to 290 °C
7,"Cc1[nH]c(=O)c2c(ccc3nc(Nc4c(Cl)cccc4Cl)n(C)c32)c1CCO [Example 10, 2-(2,6-Dichlorophenylamino)-1,7-dimethyl-6-(2-hydroxyethyl)-1,8-dihydro-imidazo[4,5-h]isoquinoline-9-one]",> 300 °C
8,"Cc1c(-c2cncn2C)[nH]c(=O)c2c1ccc1nc(Nc3c(Cl)cccc3Cl)n(C)c12 [Example 21, 2-(2,6-Dichlorophenylamino)-1,6-dimethyl-7-(3-methyl-3H-imidazol-4-yl)-1,8-dihydro-imidazo[4,5-h]isoquinolin-9-one]",> 300 °C
9,"COC(=O)/C=C/c1[nH]c(=O)c2c(ccc3nc(Nc4c(Cl)cccc4Cl)n(C)c32)c1C [Example 12, 3-[2-(2,6-Dichlorophenylamino)-1,6-dimethyl-9-oxo-8,9-dihydro-1H-imidazo[4,5-h]isoquinolin-7-yl]-acrylic acid methyl ester]",> 300 °C
10,"Cc1c(/C=C/CO)[nH]c(=O)c2c1ccc1nc(Nc3c(Cl)cccc3Cl)n(C)c12 [Example 14, 2-(2,6-Dichlorophenylamino)-1,6-dimethyl-7-(3-hydroxy-propen-1-yl)-1,8-dihydro-imidazo[4,5-h]isoquinolin-9-one]",298 to 300 °C
11,"CC1(C)CNC(=O)c2c1ccc1nc(Nc3c(Cl)cccc3Cl)[nH]c21 [Example 2, 2-(2,6-Dichlorophenylamino)-6,6-dimethyl-7,8-dihydro-1H,6H-imidazo[4,5-h]isoquinoline-9-one]",287 to 290 °C
12,"O=c1[nH]c2ccccc2c2ccc3nc(Nc4c(Cl)cccc4Cl)[nH]c3c12 [Example 26, 2-(2,6-Dichlorophenylamino)-3,5-dihydro-imidazo[4,5-i]phenanthridin-4-one]",> 300 °C
13,"Cc1c(/C=C/CN2CCOCC2)[nH]c(=O)c2c1ccc1nc(Nc3c(Cl)cccc3Cl)n(C)c12 [Example 18, 2-(2,6-Dichlorophenylamino)-1,6-dimethyl-7-(3-morpholin-4-yl-propen-1-yl)-1,8-dihydro-imidazo[4,5-h]-isoquinolin-9-one]",175 to 177 °C
14,"Cc1c(-c2cnco2)[nH]c(=O)c2c1ccc1nc(Nc3c(Cl)cccc3Cl)n(C)c12 [Example 20, 2-(2,6-Dichlorophenylamino)-1,6-dimethyl-7-oxazol-5-yl-1,8-dihydro-imidazo[4,5-h]isoquinolin-9-one]",> 300 °C
15,"CC1(C)C(=O)NC(=O)c2c1ccc1nc(Nc3c(Cl)cccc3Cl)sc21 [Example 5, 2-(2,6-Dichlorophenylamino)-6,6-dimethyl-6H-thiazolo[4,5-h]isoquinoline-7,9-dione]",> 300 °C
16,"CC1(C)C(=O)NC(=O)c2c1ccc1nc(Nc3c(Cl)cccc3Cl)[nH]c21 [Example 1, 2-(2,6-Dichlorophenylamino)-6,6-dimethyl-1H,6H-imidazo[4,5-h]isoquinoline-7,9-dione]",290 to 292 °C
17,"CCOC(=O)Cc1c(C)[nH]c(=O)c2c1ccc1nc(Nc3c(Cl)cccc3Cl)n(C)c12 [Example 9, 2-(2,6-Dichlorophenylamino)-1,7-dimethyl-9-oxo-1,8-dihydro-imidazo[4,5-h]isoquinolin-6-yl acetic acid ethyl ester]",280 to 285 °C (dec.)
18,"C=CC(O)c1[nH]c(=O)c2c(ccc3nc(Nc4c(Cl)cccc4Cl)n(C)c32)c1C (stereo not shown) [Example 16, 2-(2,6-Dichlorophenylamino)-1,6-dimethyl-7-(1-hydroxyprop-2-en-1-yl)-1,8-dihydro-imidazo[4,5-h]isoquinolin-9-one]",235 to 236 °C
19,"Cc1c(CNCc2ccccc2)[nH]c(=O)c2c1ccc1nc(Nc3c(Cl)cccc3Cl)n(C)c12 [Example 19, 7-Benzylaminomethyl-2-(2,6-dichlorophenylamino)-1,6-dimethyl-1,8-dihydro-imidazo[4,5-h]-isoquinolin-9-one]",231 to 234 °C
